# Values of other authors as cited in patent US5872104A, “Combinations and methods for reducing antimicrobial resistance” (Oridigm Corporation, priority 1994, dated 1999).
# “And” between values parts separate entries of the source, which are not always exact repeats. Equal values may be shown once. Read-outs that look alike come from different tables or passages of the source.
# Experiments:
# Bordetella pertussis [1] = settings: cited from earlier work
# Campylobacter jejuni = settings: in µg/mL; cited from earlier work
# Ureaplasma urealyticum = settings: cited from earlier work
# [2] = system: Staphylococcus epidermidis; settings: cited from earlier work
# Campylobacter pylori = settings: cited from earlier work
# Streptococcus pyogenes = settings: cited from earlier work
# Haemophilus influenzae = settings: cited from earlier work
# [3] = system: Staphylococcus aureus, methicillin susceptible; settings: in µg/mL; cited from earlier work
# Bacteroides fragilis [4] = settings: cited from earlier work
# S. aureus = settings: agar disc susceptibility test; cited from earlier work
# Staphylococcus hominis = settings: cited from earlier work
# Legionella pneumophila = settings: in µg/mL; cited from earlier work
# Borrelia burgdorferi = settings: cited from earlier work
# Neisseria gonorrhoeae [5] = settings: cited from earlier work
# [6] = system: Haemophilus influenzae (penicillin susceptible); settings: cited from earlier work
# Staphylococcus aureus = settings: cited from earlier work
# Moraxella catarrhalis = settings: in µg/mL; cited from earlier work
# Mycoplasma pneumoniae [7] = settings: cited from earlier work
# Clostridium perfringens = settings: anaerobes; in µg/mL; cited from earlier work
# Listeria monocytogenes [8] = settings: in µg/mL; cited from earlier work
# Bacillus spp. = settings: cited from earlier work
# Legionella spp. = settings: cited from earlier work
# Corynebacterium JK = settings: cited from earlier work
# Enterococcus spp. = settings: cited from earlier work
# Bordetella pertussis [9] = settings: in µg/mL; cited from earlier work
# Bacteroides fragilis [10] = settings: anaerobes; in µg/mL; cited from earlier work
# Bordetella parapertussis = settings: cited from earlier work
# [11] = system: Staphylococcus coagulase .phi. (non β-lactamase producer); settings: cited from earlier work
# [12] = system: Staphylococcus aureus (penicillin susceptible); settings: cited from earlier work
# Streptococcus spp. = settings: cited from earlier work
# N. meningitidis = settings: in µg/mL; cited from earlier work
# [13] = system: Neisseria gonorrhoeae (non β-lactamase producer); settings: cited from earlier work
# [14] = system: Staphylococcus coagulase .phi.; settings: cited from earlier work
# [15] = system: Chlamydia pneumoniae (formerly TWAR); settings: in µg/mL; cited from earlier work
# Nocardia asteroides = settings: cited from earlier work
# [16] = system: Staphylococcus aureus (methicillin susceptible); settings: in µg/mL; cited from earlier work
# [17] = system: Streptococcus agalactactiae (group B); settings: in µg/mL; cited from earlier work
# Neisseria meningitidis = settings: cited from earlier work
# Mycoplasma pneumoniae [18] = settings: in µg/mL; cited from earlier work
# [19] = system: Streptococcus pyogenes (group A), erythromycin susceptible; settings: cited from earlier work
# [20] = system: Staphylococcus coagulase .phi. (β-lactamase producer); settings: cited from earlier work
# Neisseria gonorrhoeae [21] = settings: in µg/mL; cited from earlier work
# Haemophilus ducreyi = settings: cited from earlier work
# Enterococcus faecium = settings: cited from earlier work
# [22] = system: Branhamella (Moraxella) catarrhalis; settings: cited from earlier work
# Chlamydia trachomatis = settings: in µg/mL; cited from earlier work
# [23] = system: Staphylococcus aureus (penicillin resistant); settings: cited from earlier work
# [24] = system: Haemophilus parainfluenzae; settings: cited from earlier work
# [25] = system: Haemophilus influenzae (penicillin resistant); settings: cited from earlier work
# [26] = system: Staphylococcus haemolyticus; settings: cited from earlier work
# Streptococcus pneumoniae = settings: in µg/mL; cited from earlier work
# Listeria monocytogenes [27] = settings: in µg/mL; cited from earlier work; remark: listed apart in the source
# [28] = system: Bordetella bronchiseptica; settings: cited from earlier work
# Streptococcus agalactiae = settings: cited from earlier work
# [29] = in vivo; cited from earlier work
# Viridans streptococci = settings: cited from earlier work
smiles,measurement,setting,value
CC[C@H]1OC(=O)[C@H](C)[C@@H](O[C@H]2C[C@@](C)(OC)[C@@H](O)[C@H](C)O2)[C@H](C)[C@@H](O[C@@H]2O[C@H](C)C[C@H](N(C)C)[C@H]2O)[C@](C)(O)C[C@@H](C)C(=O)[C@H](C)[C@@H](O)[C@]1(C)O [Erythromycin],MIC50,Bordetella pertussis [1],0.25 µg/mL
same,MIC90,Campylobacter jejuni,4 and 2
same,MIC90,Ureaplasma urealyticum,32 µg/mL
same,MIC50,[2],≥ 64 µg/mL
same,MIC90,[2],≥ 64 µg/mL
same,MIC50,Campylobacter pylori,0.5 µg/mL
same,Range,Campylobacter pylori,0.25-16
same,MIC50,Streptococcus pyogenes,0.06 µg/mL
same,Range,Haemophilus influenzae,0.5-8
same,MIC50,Haemophilus influenzae; in µg/mL,2 and 1
same,MIC90,[3],0.25-0.50
same,MIC50,Bacteroides fragilis [4],1 µg/mL
same,MIC90,Bacteroides fragilis [4],8 µg/mL
same,Range,Bacteroides fragilis [4],≤0.25-16
same,MIC90,S. aureus,about 4 μg/ml
same,MIC50,Staphylococcus hominis,≥ 64 µg/mL
same,MIC90,Staphylococcus hominis,≥ 64 µg/mL
same,MIC90,Legionella pneumophila,1.0-2.0
same,MIC50,Borrelia burgdorferi,0.03 µg/mL
same,MIC90,Borrelia burgdorferi,0.06 µg/mL
same,MIC50,Neisseria gonorrhoeae [5],0.25 µg/mL
same,MIC90,Neisseria gonorrhoeae [5],1 µg/mL
same,Range,Neisseria gonorrhoeae [5],0.0075-8
same,MIC50,[6],8 µg/mL
same,MIC90,[6],16 µg/mL
same,Range,[6],0.25-16
same,MIC50,Staphylococcus aureus,0.5 µg/mL
same,MIC90,Moraxella catarrhalis,0.25-2.0
same,MIC90,Mycoplasma pneumoniae [7],≤ 0.004 µg/mL
same,MIC90,Clostridium perfringens,1.0
same,MIC50,Listeria monocytogenes [8],0.5 and 0.25
same,MIC50,Bacillus spp.,0.25 µg/mL
same,MIC90,Bacillus spp.,2 µg/mL
same,Range,Bacillus spp.,0.03-2
same,MIC90,Legionella spp.,0.25 µg/mL
same,MIC50,Corynebacterium JK,2 µg/mL
same,MIC90,Corynebacterium JK,≥ 64 µg/mL
same,MIC50,Enterococcus spp.,2 µg/mL
same,MIC90,Enterococcus spp.,≥ 32 µg/mL
same,MIC90,Bordetella pertussis [9],0.3-1.6
same,MIC90,Bacteroides fragilis [10],4.0-32.0
same,MIC50,Bordetella parapertussis,0.25 µg/mL
same,MIC90,Bordetella parapertussis,0.25 µg/mL
same,MIC90,[11],0.25 µg/mL
same,Range,[11],0.03-8
same,MIC90,[12],0.5 µg/mL
same,MIC50,[12]; in µg/mL,0.5 and 0.25
same,MIC50,Streptococcus spp.,0.03 µg/mL
same,MIC90,Streptococcus spp.,1 µg/mL
same,MIC90,N. meningitidis,0.4-1.6
same,Range,[13],0.015-4 and 0.03-2
same,MIC50,[14],0.25 µg/mL
same,MIC90,[15],0.065-1.0
same,MIC50,Nocardia asteroides,≥ 8 µg/mL
same,MIC90,Nocardia asteroides,≥ 8 µg/mL
same,MIC50,[16],0.25 and 0.5
same,MIC90,[17],0.03-0.25
same,MIC50,Neisseria meningitidis,1 µg/mL
same,MIC90,Neisseria meningitidis,8 µg/mL
same,Range,Neisseria meningitidis,0.5-8
same,MIC90,Mycoplasma pneumoniae [18],0.004
same,MIC90,[19],0.03 µg/mL
same,MIC90,[20],4 µg/mL
same,Range,[20],0.06-16
same,MIC90,Neisseria gonorrhoeae [21],0.25-2.0
same,MIC50,Haemophilus ducreyi,0.004 µg/mL
same,MIC90,Haemophilus ducreyi,0.06 µg/mL
same,MIC50,Enterococcus faecium,1 µg/mL
same,MIC90,Enterococcus faecium,≥ 64 µg/mL
same,MIC50,[22],0.25 µg/mL
same,MIC90,Chlamydia trachomatis,0.12-0.25
same,MIC50,[23],0.25 µg/mL
same,MIC90,[23],≥ 32 µg/mL
same,MIC50,[24],2 µg/mL
same,MIC90,[24],4 µg/mL
same,Range,[24],0.5-8
same,MIC50,[25],8 µg/mL
same,MIC90,[25],16 µg/mL
same,Range,[25],8-16
same,MIC50,[26],≥ 64 µg/mL
same,MIC90,[26],≥ 64 µg/mL
same,MIC90,Streptococcus pneumoniae,0.03-1.0
same,MIC90,Listeria monocytogenes [27],0.5-2.0
same,MIC50,[28],8 µg/mL
same,MIC90,[28],32 µg/mL
same,Range,[28],4-32
same,MIC50,Streptococcus agalactiae,0.03 µg/mL
same,Range,Streptococcus agalactiae,0.03-0.25
same,clinical safety,[29],one of the safest antibiotics in current clinical use
same,MIC90,Viridans streptococci,0.06 µg/mL
